Laboratory results reported in patent US20230416227A1, “PLASMA KALLIKREIN INHIBITORS” (Merck Sharp & Dohme LLC, priority 2020, published 2023).

What was measured:
Human plasma kallikrein = biological target: T1, Human plasma kallikrein (Homo sapiens, UniProt P03952); experiment: Plasma Kallikrein Assay; assay type: biochemical; conditions: purified Human plasma kallikrein 0.5 nM, substrate Acetyl-K-P-R-AFC, pH 7.4
T1 construct: yields a heavy chain (371 amino acids) and a light chain (248 amino acids); purchased Enzyme Research Laboratories
T1 sequence (P03952 391-638 limits assumed): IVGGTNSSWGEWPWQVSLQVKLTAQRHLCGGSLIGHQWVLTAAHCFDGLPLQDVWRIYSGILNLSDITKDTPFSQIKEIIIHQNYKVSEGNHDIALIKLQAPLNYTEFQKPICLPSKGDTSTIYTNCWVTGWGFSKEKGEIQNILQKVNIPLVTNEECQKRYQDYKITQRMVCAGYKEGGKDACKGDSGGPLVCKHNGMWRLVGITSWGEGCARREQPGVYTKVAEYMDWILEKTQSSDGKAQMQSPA
T1 sequence (P03952 20-390 partner limits assumed): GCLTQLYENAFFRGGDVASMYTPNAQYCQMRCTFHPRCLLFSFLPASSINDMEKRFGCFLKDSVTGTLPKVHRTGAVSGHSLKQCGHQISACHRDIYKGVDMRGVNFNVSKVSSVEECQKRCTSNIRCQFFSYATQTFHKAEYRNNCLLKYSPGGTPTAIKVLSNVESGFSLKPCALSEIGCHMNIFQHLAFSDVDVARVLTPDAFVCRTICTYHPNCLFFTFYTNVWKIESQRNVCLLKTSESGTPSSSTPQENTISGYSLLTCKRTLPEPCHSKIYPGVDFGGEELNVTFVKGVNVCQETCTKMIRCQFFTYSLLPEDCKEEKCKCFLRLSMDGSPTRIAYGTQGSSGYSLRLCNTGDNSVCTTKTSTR

human factor XIa = human factor XIa (Homo sapiens, UniProt P03951); experiment: Factor XIa Assay; assay type: biochemical; conditions: human factor XIa 0.04 nM, substrate GPR-AFC, 30 min pre-incubation at 25° C., pH 7.4; read-out: FXIa IC50
human factor XIa, sequence (P03951 388-625 limits assumed): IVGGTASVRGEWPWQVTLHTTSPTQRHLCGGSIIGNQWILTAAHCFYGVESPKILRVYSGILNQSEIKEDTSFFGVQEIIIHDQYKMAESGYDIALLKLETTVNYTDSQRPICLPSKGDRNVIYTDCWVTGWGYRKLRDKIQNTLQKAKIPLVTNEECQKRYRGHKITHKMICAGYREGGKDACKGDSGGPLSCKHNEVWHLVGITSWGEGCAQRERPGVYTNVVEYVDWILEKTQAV
human factor XIa, sequence (P03951 19-387 partner limits assumed): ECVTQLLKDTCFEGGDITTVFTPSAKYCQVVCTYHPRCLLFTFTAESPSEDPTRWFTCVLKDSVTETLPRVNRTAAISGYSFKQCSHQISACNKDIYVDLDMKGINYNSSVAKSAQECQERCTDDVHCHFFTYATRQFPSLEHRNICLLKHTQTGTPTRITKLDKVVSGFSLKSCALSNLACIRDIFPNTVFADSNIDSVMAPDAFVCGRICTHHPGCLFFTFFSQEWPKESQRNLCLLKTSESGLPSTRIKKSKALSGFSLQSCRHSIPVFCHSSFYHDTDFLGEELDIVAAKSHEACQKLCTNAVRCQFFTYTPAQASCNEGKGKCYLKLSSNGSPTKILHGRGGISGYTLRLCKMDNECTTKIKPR
Method: The effectiveness of a compound of the present invention as an inhibitor of Coagulation factor XIa can be determined using a relevant purified serine protease, and an appropriate synthetic substrate. The rate of hydrolysis of the chromogenic or fluorogenic substrate by the relevant serine protease was measured both in the absence and presence of compounds of the present invention. Assays were conducted at rt or at 37° C. […] A decrease in the rate of fluorescence change in the presence of inhibitor is indicative of enzyme inhibition. Such methods are known to one skilled in the art. The results of this assay are expressed as the half-maximal inhibitory concentrations (IC50), or the inhibitory constant, Ki.
Compounds were pre-incubated for 30 min at 25° C. with human (0.04 nM) factor XIa in 50 mM HEPES buffer with 150 mM sodium chloride, 5 mM calcium chloride, 0.1% PEG 8000, pH 7.4. factor XIa enzymatic activity was determined by addition of the substrate glycine-proline-arginine-7-amido-4-trifluoromethylcoumarin (GPR-AFC) and measurement of the fluorescence at 400/505 nm after a 60 min incubation at 25° C. The % inhibition for each data point was calculated from the data and analyzed using the log (inhibitor) vs. response four parameters equation to determine the half-maximal inhibitory concentrations (IC50). The IC50 were converted to equilibrium inhibitory constants (Ki) using the Cheng-Prusoff equation.

SMILES	IC50 (Human plasma kallikrein)	IC50 (human factor XIa)
CC(c1cnc(N2CC[C@H](O)C2)nc1)n1cc(NC(=O)c2cncc(-c3c(C(F)F)ccc(Cl)c3F)n2)cn1 (mixture of isomers) [Example 96, 6-(3-Chloro-6-(difluoromethyl)-2-fluorophenyl)-N-(1-((R and S)-1-(2-((S)-3-hydroxypyrrolidin-1-yl)pyrimidin-5-yl)ethyl)-1H-pyrazol-4-yl)pyrazine-2-carboxamide]	0.0259 µM	3.71 µM
CC(c1cnc(N2C[C@H]3C[C@H]3[C@H]2C(N)=O)nc1)n1cc(NC(=O)c2cncc(-c3c(C(F)F)ccc(Cl)c3F)n2)cn1 (relative stereo) [Example 195, (cis)-3-(5-(1-(4-(6-(3-Chloro-6-(difluoromethyl)-2-fluorophenyl)pyrazine-2-carboxamido)-1H-pyrazol-1-yl)ethyl)pyrimidin-2-yl)-3-azabicyclo[3.1.0]hexane-2-carboxamide]	0.011 µM	8.8 µM
C[C@H](c1cnc(N2CCC2)nc1)n1cc(NC(=O)c2cncc(-c3c(C(F)F)ccc(Cl)c3F)n2)cn1 (single isomer, unassigned) [Example 4]	0.0231 µM	1.32 µM
O=C(Nc1cnn([C@@H](CO)c2cnc(N3CCC3)nc2)c1)c1cncc(-c2c(C(F)F)ccc(Cl)c2F)n1 (single isomer, unassigned) [Example 6]	0.0229 µM	1.69 µM
O=C(Nc1cnn([C@H](CO)c2cnc(N3CCC3)nc2)c1)c1cncc(-c2c(C(F)F)ccc(Cl)c2F)n1 (single isomer, unassigned) [Example 7]	0.0521 µM	1.42 µM
O=C(Nc1cnn(Cc2cnc(N3C[C@H]4C[C@H]4[C@H]3CN[C@H]3CCC[C@@H]3O)nc2)c1)c1cncc(-c2c(C(F)F)ccc(Cl)c2F)n1 [Example 149, 6-(3-Chloro-6-(difluoromethyl)-2-fluorophenyl)-N-(1-((2-((1R,2S,5S)-2-((((1S,2S)-2-hydroxycyclopentyl)amino)methyl)-3-azabicyclo[3.1.0]hexan-3-yl)pyrimidin-5-yl)methyl)-1H-pyrazol-4-yl)pyrazine-2-carboxamide]		1.48 µM
CC(c1cnc(N2CC[C@H]2CN[C@H](C)C(C)(C)O)nc1)n1cc(NC(=O)c2cncc(-c3c(C(F)F)ccc(Cl)c3F)n2)cn1 (stereo partly drawn) [Example 182, 6-(3-Chloro-6-(difluoromethyl)-2-fluorophenyl)-N-(1-(1-(2-((S)-2-((((R)-3-hydroxy-3-methylbutan-2-yl)amino)methyl)azetidin-1-yl)pyrimidin-5-yl)ethyl)-1H-pyrazol-4-yl)pyrazine-2-carboxamide]	0.0061 µM	
CC(c1cnc(N2CC[C@H]2CN(C)[C@H]2CCC[C@@H]2O)nc1)n1cc(NC(=O)c2cncc(-c3c(C(F)F)ccc(Cl)c3F)n2)cn1 (stereo partly drawn) [Example 183, 6-(3-Chloro-6-(difluoromethyl)-2-fluorophenyl)-N-(1-(1-(2-((S)-2-((((1S,2S)-2-hydroxycyclopentyl)(methyl)amino)methyl)azetidin-1-yl)pyrimidin-5-yl)ethyl)-1H-pyrazol-4-yl)pyrazine-2-carboxamide]	0.0042 µM	
CC(c1cnc(N2CC[C@H]2[C@@H](C)N[C@@H]2CCC[C@H]2O)nc1)n1cc(NC(=O)c2cncc(-c3c(C(F)F)ccc(Cl)c3F)n2)cn1 (stereo partly drawn) [Example 193, 6-(3-Chloro-6-(difluoromethyl)-2-fluorophenyl)-N-(1-(1-(2-((S)-2-((R)-1-(((1R,2R)-2-hydroxycyclopentyl)amino)ethyl)azetidin-1-yl)pyrimidin-5-yl)ethyl)-1H-pyrazol-4-yl)pyrazine-2-carboxamide]	0.0081 µM	
CC(c1cnc(N2CC[C@H]2[C@@H](C)N[C@H](C)C(C)(C)O)nc1)n1cc(NC(=O)c2cncc(-c3c(C(F)F)ccc(Cl)c3F)n2)cn1 (stereo partly drawn) [Example 194, 6-(3-Chloro-6-(difluoromethyl)-2-fluorophenyl)-N-(1-(1-(2-((S)-2-((R)-1-(((R)-3-hydroxy-3-methylbutan-2-yl)amino)ethyl)azetidin-1-yl)pyrimidin-5-yl)ethyl)-1H-pyrazol-4-yl)pyrazine-2-carboxamide]	0.0216 µM	
O=C(Nc1cnn(Cc2ccc(N3CC4CCC(C3)N4)nc2)c1)c1cncc(-c2c(C(F)F)ccc(Cl)c2F)n1 [Example 204, N-(1-((6-(3,8-Diazabicyclo[3.2.1]octan-3-yl)pyridin-3-yl)methyl)-1H-pyrazol-4-yl)-6-(3-chloro-6-(difluoromethyl)-2-fluorophenvl)pyrazine-2-carboxamide]	0.0175 µM	
CN1C2CCC1CN(c1ccc(Cn3cc(NC(=O)c4cncc(-c5c(C(F)F)ccc(Cl)c5F)n4)cn3)cn1)C2 [Example 205, 6-(3-Chloro-6-(difluoromethyl)-2-fluorophenyl)-N-(1-((6-(8-methyl-3,8-diazabicyclo[3.2.1]octan-3-yl)pyridin-3-yl)methyl)-1H-pyrazol-4-yl)pyrazine-2-carboxamide]	0.0141 µM	

Further compounds by falling IC50 (Human plasma kallikrein), results first:

IC50 (Human plasma kallikrein)	IC50 (human factor XIa)	SMILES
0.0042 µM		CC(c1cnc(N2CC[C@H]2CN[C@@H]2CCC[C@H]2O)nc1)n1cc(NC(=O)c2cncc(-c3c(C(F)F)ccc(Cl)c3F)n2)cn1 (stereo partly drawn) [Example 181, 6-(3-Chloro-6-(difluoromethyl)-2-fluorophenyl)-N-(1-(1-(2-((S)-2-((((1R,2R)-2-hydroxycyclopentyl)amino)methyl)azetidin-1-yl)pyrimidin-5-yl)ethyl)-1H-pyrazol-4-yl)pyrazine-2-carboxamide]
0.0041 µM		CC(c1cnc(N2CC[C@H]2[C@@H](C)NCC2(O)CC2)nc1)n1cc(NC(=O)c2cncc(-c3c(C(F)F)ccc(Cl)c3F)n2)cn1 (stereo partly drawn) [Example 192, 6-(3-Chloro-6-(difluoromethyl)-2-fluorophenyl)-N-(1-(1-(2-((S)-2-((R)-1-(((1-hydroxycyclopropyl)methyl)amino)ethyl)azetidin-1-yl)pyrimidin-5-yl)ethyl)-1H-pyrazol-4-yl)pyrazine-2-carboxamide]
0.0035 µM		CC(c1cnc(N2CC[C@H]2[C@@H](C)N2CC(C)(O)C2)nc1)n1cc(NC(=O)c2cncc(-c3c(C(F)F)ccc(Cl)c3F)n2)cn1 (stereo partly drawn) [Example 190, 6-(3-Chloro-6-(difluoromethyl)-2-fluorophenyl)-N-(1-(1-(2-((S)-2-((R)-1-(3-hydroxy-3-methylazetidin-1-yl)ethyl)azetidin-1-yl)pyrimidin-5-yl)ethyl)-1H-pyrazol-4-yl)pyrazine-2-carboxamide]
0.0033 µM		CC(c1cnc(N2CC[C@H]2CN2CC[C@@H](O)C[C@@H]2C)nc1)n1cc(NC(=O)c2cncc(-c3c(C(F)F)ccc(Cl)c3F)n2)cn1 (stereo partly drawn) [Example 178, 6-(3-Chloro-6-(difluoromethyl)-2-fluorophenyl)-N-(1-(1-(2-((S)-2-(((2S,4R)-4-hydroxy-2-methylpiperidin-1-yl)methyl)azetidin-1-yl)pyrimidin-5-yl)ethyl)-1H-pyrazol-4-yl)pyrazine-2-carboxamide]
0.0015 µM		CC(c1cnc(N2CC[C@H]2[C@@H](C)N2CC[C@H](O)[C@@H]2C)nc1)n1cc(NC(=O)c2cncc(-c3c(C(F)F)ccc(Cl)c3F)n2)cn1 (stereo partly drawn) [Example 185, 6-(3-Chloro-6-(difluoromethyl)-2-fluorophenyl)-N-(1-(1-(2-((S)-2-((R)-1-((2S,3S)-3-hydroxy-2-methylpyrrolidin-1-yl)ethyl)azetidin-1-yl)pyrimidin-5-yl)ethyl)-1H-pyrazol-4-yl)pyrazine-2-carboxamide]
0.0014 µM		CC(c1cnc(N2CC[C@H]2[C@@H](C)N2CC[C@H](O)C2)nc1)n1cc(NC(=O)c2cncc(-c3c(C(F)F)ccc(Cl)c3F)n2)cn1 (stereo partly drawn) [Example 186, 6-(3-Chloro-6-(difluoromethyl)-2-fluorophenyl)-N-(1-(1-(2-((S)-2-((R)-1-((S)-3-hydroxypyrrolidin-1-yl)ethyl)azetidin-1-yl)pyrimidin-5-yl)ethyl)-1H-pyrazol-4-yl)pyrazine-2-carboxamide]
0.0012 µM		CC(c1cnc(N2CC[C@H]2[C@@H](C)N2C[C@@H](O)[C@H](F)C2)nc1)n1cc(NC(=O)c2cncc(-c3c(C(F)F)ccc(Cl)c3F)n2)cn1 (stereo partly drawn) [Example 189, 6-(3-Chloro-6-(difluoromethyl)-2-fluorophenyl)-N-(1-(1-(2-((S)-2-((R)-1-((3R,4R)-3-fluoro-4-hydroxypyrrolidin-1-yl)ethyl)azetidin-1-yl)pyrimidin-5-yl)ethyl)-1H-pyrazol-4-yl)pyrazine-2-carboxamide]
0.0011 µM		CC(c1cnc(N2CC[C@H]2CN2CC[C@H](O)[C@@H](C)C2)nc1)n1cc(NC(=O)c2cncc(-c3c(C(F)F)ccc(Cl)c3F)n2)cn1 (stereo partly drawn) [Example 180, 6-(3-Chloro-6-(difluoromethyl)-2-fluorophenyl)-N-(1-(1-(2-((S)-2-(((3S,4S)-4-hydroxy-3-methylpiperidin-1-yl)methyl)azetidin-1-yl)pyrimidin-5-yl)ethyl)-1H-pyrazol-4-yl)pyrazine-2-carboxamide]
0.0011 µM		CC(c1cnc(N2CC[C@H]2[C@@H](C)N2CC(C(C)(C)O)C2)nc1)n1cc(NC(=O)c2cncc(-c3c(C(F)F)ccc(Cl)c3F)n2)cn1 (stereo partly drawn) [Example 191, 6-(3-Chloro-6-(difluoromethyl)-2-fluorophenyl)-N-(1-(1-(2-((S)-2-((R)-1-(3-(2-hydroxypropan-2-yl)azetidin-1-yl)ethyl)azetidin-1-yl)pyrimidin-5-yl)ethyl)-1H-pyrazol-4-yl)pyrazine-2-carboxamide]
